Assays:
[1] = AUC in Sprague-Dawley rat; type: ADME, organism-based; parameters: concentration or dose not given beside the values; conditions: plasma
[2] = in vivo; conditions: Sprague-Dawley, rat
[3] = Clearance in mouse at 5 mg/kg, po; type: ADME, organism-based; parameters: dose 5 mg/kg, route oral; conditions: in vivo
[4] = Oral bioavailability in mouse at 5 mg/kg; type: ADME, organism-based; conditions: in vivo
[5] = tested on: Mus musculus; assay: Volume of distribution at steady state in mouse at 5 mg/kg, po; type: ADME, organism-based; parameters: dose 5 mg/kg, route oral; conditions: in vivo
[6] = in vivo; conditions: Sprague-Dawley, rat; remark: listed apart in the source
[7] = in vivo; conditions: Sprague-Dawley, rat; remark: listed apart in the source
[8] = AUC in mouse at 5 mg/kg, po; type: ADME, organism-based; parameters: dose 5 mg/kg, route oral; conditions: plasma
[9] = in vivo; conditions: Sprague-Dawley, rat; remark: listed apart in the source
[10] = Half life in dog; type: ADME, organism-based, Canis lupus familiaris; conditions: in vivo
[11] = Clearance in dog; type: ADME, organism-based, Canis lupus familiaris; conditions: in vivo
[12] = (§1) Half life in mouse at 5 mg/kg, po; type: ADME, organism-based; parameters: dose 5 mg/kg, route oral; conditions: in vivo
[13] = Cmax in dog; type: ADME, organism-based, Canis lupus familiaris; conditions: in vivo
[14] = Oral bioavailability in dog; type: ADME, organism-based, Canis lupus familiaris; conditions: in vivo
[15] = in vivo; conditions: Sprague-Dawley, rat, po
[16] = Cmax in mouse at 5 mg/kg, po; type: ADME, organism-based; parameters: dose 5 mg/kg, route oral; conditions: in vivo
[17] = AUC in dog; type: ADME, organism-based, Canis lupus familiaris; conditions: plasma
[18] = Volume of distribution at steady state in dog; type: ADME, organism-based, Canis lupus familiaris; conditions: in vivo, read-out: Vdss
[19] = Metabolic stability in rat liver microsomes assessed as compound remaining after 30 mins; type: ADME, Microsome; conditions: read-out: Stability
[20] = tested on: Mus musculus; assay: Toxicity in C57BL/6 mouse assessed as increase in liver ALT level at 15 mg/kg, iv; type: organism-based; parameters: dose 15 mg/kg, route intravenous; conditions: in vivo
[21] = Toxicity in iv dosed C57BL/6 mouse assessed as no observable effect level; type: organism-based; conditions: in vivo
[22] = tested on: Mus musculus; assay: as §1; type: ADME, organism-based; parameters: dose 5 mg/kg, route oral; conditions: in vivo
[23] = tested on: Mus musculus; assay: Toxicity in C57BL/6 mouse assessed as increase in liver ALT level at 50 mg/kg, iv; type: organism-based; parameters: dose 50 mg/kg, route intravenous; conditions: in vivo

Row | SMILES | clearance [2] [mL/min/kg] | half-life [6] [min] | Vd [7] [L/kg] | Cmax [9] [nM] | bioavailability [15] [%] | also measured
1 | Cc1cccnc1CN1CCC2(CC1)C(=O)N(c1ccc(-c3ccccc3)cc1)C(=O)N2c1nccc(O)n1 | 9 | 66 | 0.72 | 990 | 66 | AUC [1]: 3.7 µM·h; CL/F [3]: 13 mL/min/kg; bioavailability [4]: 78%; Vdss [5]: 1.3 L/kg; AUC [8]: 1.4 µM·h; half-life [10]: 780 min; clearance [11]: 1.3 mL/min/kg; half-life [12]: 84 min; Cmax [13]: 1500 nM; bioavailability [14]: 26%; Cmax [16]: 990 nM; AUC [17]: 41 µM·h; Vd [18]: 1.1 L/kg
2 | Cc1cccnc1CN1CCC2(CC1)C(=O)N(c1ccc(-c3ccccc3)cc1)c1ccccc12 | 30 | 180 | 8.2 | 79 | 11 | AUC [1]: 1.2 µM·h
3 | Cn1ccnc1CN1CCC2(CC1)C(=O)N(c1cnc3ccccc3c1)c1ccccc12 | – | – | – | – | – | remaining at 0.5 h [19]: < 10%
4 | COc1cc(N2C(=O)N(c3ccc(-c4cccc(C(=O)O)c4)cc3)C(=O)C23CCN(Cc2ncccc2C)CC3)ncn1 | – | – | – | – | – | fold change (FC) [20]: 6.1
5 | COc1cc(N2C(=O)N(c3ccc(-c4ccc(C(=O)O)cc4)cc3)C(=O)C23CCN(Cc2ncccc2C)CC3)ncn1 | 8.8 | 156 | 1.7 | 1900 | 92 | CL/F [3]: 1.2 mL/min/kg; bioavailability [4]: 36%; Vdss [5]: 0.4 L/kg; half-life [12]: 222 min; Cmax [16]: 6100 nM
6 | Cc1cccnc1CN1CCC2(CC1)C(=O)N(c1ccc(-c3ccc(C(=O)O)cc3)cc1)C(=O)N2c1ccncn1 | 16 | 132 | 2 | 580 | 8 | –
7 | Cc1cccnc1CN1CCC2(NC(=O)N(c3ccc(-c4ccccc4)cc3)C2=O)C(C(=O)O)C1 (stereo unspecified) | 11 | 66 | 0.58 | 40 | 14 | AUC [1]: 3.2 µM·h
8 | Cc1cc(C(=O)O)ccc1-c1ccc(N2C(=O)N(c3cnccn3)C3(CCN(Cc4ncccc4C)CC3)C2=O)cc1 | 22 | 90 | 1.6 | 390 | 29 | –
9 | Cc1cccnc1CN1CCC2(CC1)C(=O)N(c1ccc(-c3ccccc3)cc1)c1ncccc12 | 59 | 114 | 8 | 40 | 0 | AUC [1]: 0.6 µM·h
10 | Cc1cccnc1CN1CCC2(CC1)C(=O)N(c1cnc3ccccc3c1)c1ccccc12 | – | – | – | – | – | remaining at 0.5 h [19]: 35%
11 | COc1cc(N2C(=O)N(c3ccc(-c4ccc(C(=O)O)cc4C)cc3)C(=O)C23CCN(Cc2ncccc2C)CC3)ncn1 | 11.9 | 246 | 4.3 | 570 | 64 | NOAEL [21]: 50 mg/kg
12 | Cc1cc(C(=O)O)ccc1-c1ccc(N2C(=O)N(c3ccncn3)C3(CCN(Cc4ncccc4C)CC3)C2=O)cc1 | 34 | 66 | 1.9 | 390 | 47 | –
13 | Cc1cccnc1CN1CCC2(CC1)C(=O)N(c1ccc(-c3ccc(C(=O)O)cc3)cc1)C(=O)N2c1ncccn1 | 51 | 66 | 2.2 | 100 | 18 | –
14 | Cc1cccnc1CN1CCC2(CC1)C(=O)N(c1ccc(-c3ccccc3)cc1)C(=O)N2c1ccc(O)nn1 | 40 | 72 | 1.1 | 300 | 58 | –
15 | Cc1cccnc1CN1CCC2(CC1)C(=O)N(c1ccc(-c3ccccc3)cc1)C(=O)N2c1ccnc(O)n1 | 14 | 72 | 0.9 | 1300 | 39 | –
16 | Cc1cccnc1CN1CCC2(C(=O)N(c3ccc(-c4ccccc4)cc3)C(=O)N2c2cc(O)ncn2)C(C(=O)O)C1 (stereo unspecified) | 1.2 | 216 | 0.34 | 63 | 4.3 | bioavailability [4]: 7.1%; Vdss [5]: 0.4 L/kg; t1/2 [22]: 2.1 h; Cmax [16]: 300 nM
17 | Cc1cccnc1CN1CCC2(CC1)C(=O)N(c1ccc(-c3ccccc3)cc1)C(=O)N2c1cc(O)ccn1 | 35 | 30 | 1.4 | 340 | 49 | –
18 | COc1cc(N2C(=O)N(c3ccc(-c4ccc(C(N)=O)cc4)cc3)C(=O)C23CCN(Cc2ncccc2C)CC3)ncn1 | – | – | – | – | – | fold change (FC) [23]: 6.6
19 | Cc1cccnc1CN1CCC2(CC1)NC(=O)N(c1ccc(-c3ccccc3)cc1)C2=O | 275 | 7.2 | 2.6 | 17 | 42 | AUC [1]: 0.14 µM·h
20 | Cc1cccnc1CN1CCC2(CC1)C(=O)N(c1ccc(-c3ccccc3)cc1)C(=O)N2c1ncccn1 | 51 | 66 | 2.1 | 101 | 18 | –

Source: ChEMBL document CHEMBL2040836, “1,3,8-Triazaspiro[4.5]decane-2,4-diones as efficacious pan-inhibitors of hypoxia-inducible factor prolyl hydroxylase 1-3 (HIF PHD1-3) for the treatment of anemia” (J Med Chem, 2012)
